Reference: PMC9880438, “Pharmacokinetics of active compounds of a Terminalia chebula Retz. Ethanolic extract after oral administration rats using UPLC-MS/MS” (Frontiers in Pharmacology, 2023)

Key:
[1] = Stability of QC samples of the analytes in rat plasma under storage conditions; type: physicochemical; settings: n = 6
Description: Preparation of quality control (QC) samples with three concentrations (low, medium, and high) of 16, 160, and 3,200 ng/ml for ellagic acid; 1.6, 16, 320 ng/ml for protocatechuic acid, ethyl gallate and 1,2,3,4,6-O-pentagalloylglucose; 40, 400 and 8,000 ng/ml for chebulic acid, gallic acid, corilagin and chebulinic acid and 160, 1,600, 32000 ng/ml for chebulagic acid. Both QC samples and stock solutions were stored in a refrigerator at 4°C.
Under variable treatment conditions: stored for 12 h at auto-sampler, for 4 hours at room temperature, under three freeze-thaw cycles, and kept at −80°C for 7 days, quality control samples were analyzed to assess the stability of the nine analytes in plasma.

[2] = Pharmacokinetic study in rats after oral administration of TC extracts (UPLC-MS/MS of plasma); settings: for AUC / AUC(0-inf) / Cmax / MRT / MRT inf / Tmax / half-life: male, Sprague-Dawley, rat, plasma, po, 10 g/kg
Description: UPLC-MS/MS system was used for analysis and monitoring, which consisted primarily of an Agilent 1290 UPLC system (Agilent Technologies, Germany) and an Agilent 6,470 series triple quad (TQ) mass spectrometer (MS) (Agilent Technologies, Singapore) equipped with an electrospray ionization source.
Separation was carried out on an ACQUITY UPLC® HSS T3 column (2.1 × 100 mm, 1.8 μm), and temperature in the column was kept at 20°C. In the mobile phase, 0.1% formic acid in water and acetonitrile were used as solvents A and B, respectively. Gradient elution was performed as follows: 1%–5% B at 0–3 min; 5%–30% B at 3–4 min; 30%–40% B at 4–8 min; 40%–100% B at 8–9 min; 100%–100% B at 9–12 min. The flow rate was set at 0.3 ml/min and the injection volume was 10 μL.
Multiple reaction monitoring (MRM) was used for quantitative analysis in negative (−) ionization mode. The mass spectrometric parameters were set as follows: drying gas (N2) temperature was 300°C; gas (N2) flow rate was 7 L/min; atomizer pressure was 35 psi; sheath gas flow was 11 L/min and capillary voltage was 3800 V. The specific mass spectrometric parameters of the precursor ion, product ion, fragmentor, collision energy, and ion modes of the nine compounds and IS are shown in Table 1.
The plasma sample (100 μl) was sequentially spiked with 20 μl IS solutions (caffeic acid, 1,000 ng/ml); 20 μL methanol, and 10 μl formic acid, then vortex-mixed for 1 min. The mixture was precipitated protein with 1,000 μl methanol by vortex mixing for 3 min. The supernatant was collected into a 1.5 ml clean centrifuge tube after centrifugation at for 10 min 14,000 rpm, and evaporated under a nitrogen stream until dry. After that, the residue was redissolved in 100 μl methanol, vortex-mixed for 3 min, then centrifuged for 10 min at 14,000 rpm. 10 μl analyte was injected into the UPLC-MS/MS system.
In this study, six of male rats were used, given free access to water, and fasted for 12 h before the experimental period. The TC extracts were dissolved in 0.5% CMC-Na aqueous solution as a suspension at a concentration of 1 g/ml. A dose of 10 g/kg of the suspension was administered to the rats orally, the blood samples of approximately 300 μL were drawn from the fundus venous plexus of rats pre- and post-oral administration at 0.00, 0.08, 0.17, 0.25, 0.50, 0.75, 1, 2, 4, 6, 8, 10, 12, 24, 36, 48, 60, 72, 84, 96, 120, 144 and 168 h, respectively. For analysis, the plasma supernatants collected from the centrifuged plasma were frozen at −80°C after centrifugation for 10 min at 6,000 rpm.
Data were expressed as mean ± standard deviation (mean ± SD). MassHunter Workstation software (version B.09.00) was quantitatively used to calculate the plasma concentrations of nine analytes. To evaluate the specific pharmacokinetic parameters, DAS Software (DAS 3.0, Medical College of Wannan, China) was used to process the pharmacokinetic results.

[3] = spiked 16 ng/mL, autosampler for 12 h
[4] = spiked 16 ng/mL, room temperature for 4 h
[5] = spiked 16 ng/mL, three freeze-thaw cycles
[6] = spiked 16 ng/mL, −80°C for 7 days
[7] = spiked 1.6 ng/mL, autosampler for 12 h
[8] = spiked 1.6 ng/mL, room temperature for 4 h
[9] = spiked 1.6 ng/mL, three freeze-thaw cycles
[10] = spiked 1.6 ng/mL, −80°C for 7 days
[11] = spiked 320 ng/mL, autosampler for 12 h
[12] = spiked 320 ng/mL, room temperature for 4 h
[13] = spiked 320 ng/mL, three freeze-thaw cycles
[14] = spiked 320 ng/mL, −80°C for 7 days

Row | Measured concentration after storage [1, 3] | Measured concentration after storage [1, 4] | Measured concentration after storage [1, 5] | Measured concentration after storage [1, 6] | AUC [2] | AUC(0-inf) [2] | Cmax [2] | MRT [2] | MRT inf [2] | Tmax [2] | half-life [2] | SMILES | Measured concentration after storage [1, 7] | Measured concentration after storage [1, 8] | Measured concentration after storage [1, 9] | Measured concentration after storage [1, 10] | Measured concentration after storage [1, 11] | Measured concentration after storage [1, 12] | Measured concentration after storage [1, 13] | Measured concentration after storage [1, 14] | further results
1 | 17.6 ± 1.6 ng/mL | 17.5 ± 1.7 ng/mL | 16.9 ± 1.4 ng/mL | 16.8 ± 1.0 ng/mL | 6810 ng·h/mL | 7340 ng·h/mL | 390 ± 80.5 ng/mL | 45.9 ± 8.13 h | 56.5 ± 13 h | 0.97 ± 0.84 h | 8.23 ± 8.95 h | O=c1oc2c(O)c(O)cc3c(=O)oc4c(O)c(O)cc1c4c23 [Ellagic acid, ellagic acid] |  |  |  |  |  |  |  |  | Measured concentration after storage ([1]; spiked 160 ng/mL, autosampler for 12 h): 154.8 ± 13.9 ng/mL; Measured concentration after storage ([1]; spiked 160 ng/mL, room temperature for 4 h): 156.3 ± 17.8 ng/mL; Measured concentration after storage ([1]; spiked 160 ng/mL, three freeze-thaw cycles): 171.8 ± 10.5 ng/mL; Measured concentration after storage ([1]; spiked 160 ng/mL, −80°C for 7 days): 163.8 ± 4.3 ng/mL; Measured concentration after storage ([1]; spiked 3,200 ng/mL, autosampler for 12 h): 3,450.0 ± 313.1 ng/mL; Measured concentration after storage ([1]; spiked 3,200 ng/mL, room temperature for 4 h): 3,437.2 ± 188 ng/mL; Measured concentration after storage ([1]; spiked 3,200 ng/mL, three freeze-thaw cycles): 3,438.7 ± 285.7 ng/mL; Measured concentration after storage ([1]; spiked 3,200 ng/mL, −80°C for 7 days): 3,594.0 ± 81.5 ng/mL; Shape of plasma concentration-time curve ([2]; rat plasma, oral TC extracts, Figure 2): double peaks phenomenon
2 |  |  |  |  | 16700 ± 12400 ng·h/mL | 17400 ± 12500 ng·h/mL | 591 ± 203 ng/mL | 53.5 ± 4.12 h | 99.4 ± 46.2 h | 1.67 ± 0.52 h | 26.4 ± 22.2 h | O=C(O[C@@H]1O[C@@H]2COC(=O)c3cc(O)c(O)c(O)c3-c3c(cc(O)c(O)c3O)C(=O)O[C@H]([C@H]1O)[C@@H]2O)c1cc(O)c(O)c(O)c1 [Corilagin, corilagin] |  |  |  |  |  |  |  |  | Measured concentration after storage ([1]; spiked 40 ng/mL, autosampler for 12 h): 38.8 ± 1.2 ng/mL; Measured concentration after storage ([1]; spiked 40 ng/mL, room temperature for 4 h): 39.6 ± 3.0 ng/mL; Measured concentration after storage ([1]; spiked 40 ng/mL, three freeze-thaw cycles): 42.8 ± 2.4 ng/mL; Measured concentration after storage ([1]; spiked 40 ng/mL, −80°C for 7 days): 39.7 ± 2.1 ng/mL; Measured concentration after storage ([1]; spiked 400 ng/mL, autosampler for 12 h): 435.7 ± 34.5 ng/mL; Measured concentration after storage ([1]; spiked 400 ng/mL, room temperature for 4 h): 398.2 ± 34.3 ng/mL; Measured concentration after storage ([1]; spiked 400 ng/mL, three freeze-thaw cycles): 405.3 ± 6.0 ng/mL; Measured concentration after storage ([1]; spiked 400 ng/mL, −80°C for 7 days): 395.6 ± 7.2 ng/mL; Measured concentration after storage ([1]; spiked 8,000 ng/mL, autosampler for 12 h): 7,335.4 ± 704.5 ng/mL; Measured concentration after storage ([1]; spiked 8,000 ng/mL, room temperature for 4 h): 8,930.5 ± 535.3 ng/mL; Measured concentration after storage ([1]; spiked 8,000 ng/mL, three freeze-thaw cycles): 8,802.7 ± 713.0 ng/mL; Measured concentration after storage ([1]; spiked 8,000 ng/mL, −80°C for 7 days): 8,304.6 ± 362.4 ng/mL
3 | 16.3 ± 2.6 ng/mL | 14.6 ± 1.9 ng/mL | 13.6 ± 1.2 ng/mL | 14.2 ± 0.4 ng/mL | 16.9 ± 8.28 ng·h/mL | 16.9 ± 8.2 ng·h/mL | 12.5 ± 4.38 ng/mL | 1.55 ± 0.42 h | 1.6 ± 0.4 h | 0.63 ± 0.26 h | 2.08 ± 2.16 h | CCOC(=O)c1cc(O)c(O)c(O)c1 [Ethyl gallate, ethyl gallate] | 1.7 ± 0.2 ng/mL | 1.4 ± 0.1 ng/mL | 1.6 ± 0.1 ng/mL | 1.6 ± 0.1 ng/mL | 323.3 ± 13.8 ng/mL | 345.6 ± 14.7 ng/mL | 328.6 ± 17.1 ng/mL | 307.4 ± 29.5 ng/mL | 

Row | SMILES | Measured concentration after storage [1, 3] | Measured concentration after storage [1, 4] | Measured concentration after storage [1, 5] | Measured concentration after storage [1, 6] | AUC [2] | AUC(0-inf) [2] | Cmax [2] | MRT [2] | MRT inf [2] | Tmax [2] | half-life [2] | Measured concentration after storage [1, 7] | Measured concentration after storage [1, 8] | Measured concentration after storage [1, 9] | Measured concentration after storage [1, 10] | Measured concentration after storage [1, 11] | Measured concentration after storage [1, 12] | Measured concentration after storage [1, 13] | Measured concentration after storage [1, 14] | further results
4 | O=C(O)c1ccc(O)c(O)c1 [Protocatechuic acid, protocatechuic acid] | 14.5 ± 2.0 ng/mL | 16.4 ± 0.6 ng/mL | 13.9 ± 0.7 ng/mL | 13.1 ± 1.2 ng/mL | 70.8 ± 16.6 ng·h/mL | 70.8 ± 16.6 ng·h/mL | 24.7 ± 3.27 ng/mL | 3.39 ± 0.83 h | 3.39 ± 0.83 h | 0.54 ± 0.1 h | 2.06 ± 0.76 h | 1.7 ± 0.2 ng/mL | 1.6 ± 0.1 ng/mL | 1.8 ± 0.1 ng/mL | 1.5 ± 0.2 ng/mL | 305.9 ± 15.9 ng/mL | 297.9 ± 8.4 ng/mL | 330.3 ± 18.5 ng/mL | 334.2 ± 8.0 ng/mL | 
